# In patent publication US7862824B2, “Enhancement of GLP-2 activity of suppressing appetite” (1149336 Ontario, Inc., priority 2001, dated 2011):
# Where no end group is shown, it is not given here.
# Experiments:
# adult male CD1 mice = experiment: Intracerebroventricular peptide injection and food intake in wildtype mice; assay type: in vivo, mouse; conditions: for dark phase food intake: icv prior to dark phase; for dark phase food intake / food intake in fasted mice: h[Gly2]-GLP-2 50 ug, exendin-4 1 ug; for food intake in fasted mice: after 15 hour fast
# Experimental: FIG. 1: h[Gly^2]-GLP-2 (also designated “440” in the Figure) inhibits dark phase food intake in mice. […] Following recovery, food intake was measured at 1, 2, and 4 hours (Hr) after injection. Values are expressed as mean±S.E.M., n=6 per group for (a) and n=8-20 for (b). (c) Groups of wildtype mice were administered either vehicle (PBS), h[Gly^2]-GLP-2 (50 ug dissolved in PBS), h[Gly^2]-GLP-2 and exendin (9-39) (50 ug of each peptide dissolved in PBS) or exendin (9-39) alone (50 ug dissolved in PBS) via icv injection. (f) Groups of wildtype mice were administered (icv) either vehicle (PBS), h[Gly^2]-GLP-2 alone (50 ug dissolved in PBS), or h[Gly^2]-GLP-2 (50 ug dissolved in PBS) and exendin (9-39) (0.05, 0.5 or 5 ug dissolved in PBS). (e) Groups of wildtype and GLP-1R−/− mice were injected icv with either vehicle (PBS) or h[Gly^2]-GLP-2 (50 ug dissolved in PBS) just prior to the start of dark phase and food intake was measured at 1, 2, and 4 hours. Data are expressed as mean±S.E.M., n=5-8 for all groups. Treatments at each time point for experiments shown in FIG. 1 were compared using a one way analysis of variance followed by an LSD multiple range test using SPSS for Windows version 5.0.1 (SPSS Inc., Chicago Ill.). *p<0.05 compared to controls (PBS), or to comparisons between groups indicated by connected lines.
# For icv injections adult male CD1 mice randomized into multiple experimental groups were deeply anesthetized by inhalation of methoxyflurane (Metophane; Janssen, Toronto Ontario) (43). Following icv injections of equal volumes of saline or peptide dissolved in saline, animals were allowed to recover for ^˜15-20 minutes until the observation of a righting-response. Mice were then weighed, given a premeasured quantity of rodent chow and food intake was quantified at 1, 2, 4 and 22 hours. The accuracy of icv injection was verified at autopsy analysis by detection of bromophenol dye in the lateral ventricles of selected animals. Animals were injected with peptide at either 19:00 hours (for dark phase feeding studies) or at 10:00 hours following an overnight fast of 15 hours (for fasting studies).
# rat GLP-2 receptor = target: T1, rat GLP-2 receptor (Rattus norvegicus, UniProt Q9Z0W0); experiment: cAMP accumulation in BHK cells stably expressing the rat GLP-2 receptor (RIA); assay type: cell-based; conditions: BHK-GLP-2R cells
# T1 construct: expressed in transfected cells; host or cells: BHK (baby hamster kidney fibroblast) cells, stably transfected
# T1 sequence (Q9Z0W0 1-550): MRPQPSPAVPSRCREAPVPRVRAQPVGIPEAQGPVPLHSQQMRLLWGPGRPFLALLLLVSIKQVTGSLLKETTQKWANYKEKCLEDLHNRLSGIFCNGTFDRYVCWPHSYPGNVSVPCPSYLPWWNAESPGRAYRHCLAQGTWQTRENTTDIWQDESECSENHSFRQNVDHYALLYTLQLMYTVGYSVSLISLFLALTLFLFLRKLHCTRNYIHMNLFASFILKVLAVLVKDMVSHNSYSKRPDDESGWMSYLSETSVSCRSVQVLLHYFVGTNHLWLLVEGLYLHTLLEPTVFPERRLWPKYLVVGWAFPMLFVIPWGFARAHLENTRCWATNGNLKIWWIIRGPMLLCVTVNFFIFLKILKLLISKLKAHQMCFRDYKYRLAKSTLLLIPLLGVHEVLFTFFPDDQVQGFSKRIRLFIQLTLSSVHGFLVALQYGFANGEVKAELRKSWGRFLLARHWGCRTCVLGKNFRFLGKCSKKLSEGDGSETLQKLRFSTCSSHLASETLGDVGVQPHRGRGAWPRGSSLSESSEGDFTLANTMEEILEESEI
# Experimental: Peptides were diluted in DMEM containing 100 μM IBMX. The cAMP concentration in aliquots of ethanol extract was determined using a RIA and normalized to show cAMP/well. […] The concentration of peptide is plotted on a logarithmic scale. Error bars represent mean±SD.
# GLP-2 receptors were propagated as previously described (42) and levels of intracellular cAMP were assayed following exposure to individual peptides in DMEM containing 100 μM IBMX (Sigma Chemical Co., St. Louis, Mo.) as reported (41,42). […] The treated cells were then incubated at 37° C. for 10 minutes. Absolute ethanol (−20° C.) was added to terminate the reaction and the plates were stored at −80° C. until the cell extracts were collected (2-4 hours later). Forskolin was used as a positive control. Cyclic adenosine monophosphate (cAMP) radioimmunoassays (Biomedical Technologies, Stoughton, Mass.) were performed on dried aliquots of extract and data was normalized to cAMP/well. All treatments were performed in triplicate or quadruplicate and the data is expressed as mean±SD. EC50 values were calculated using GraphPad Prism 3.00 (GraphPad Software Inc., San Diego, Calif.).
# [1] = system: human subjects with short bowel syndrome; conditions: 400 ug twice daily; cited from earlier work
# rats = conditions: cited from earlier work
# rat GLP-1 receptor = target: T2, rat GLP-1 receptor (Rattus norvegicus, UniProt P32301); experiment: cAMP accumulation in BHK cells stably expressing the rat GLP-1 receptor (RIA); assay type: cell-based; conditions: BHK-GLP-1R cells
# T2 construct: expressed in transfected cells; host or cells: BHK (baby hamster kidney fibroblast) cells, stably transfected
# T2 sequence (P32301 22-463): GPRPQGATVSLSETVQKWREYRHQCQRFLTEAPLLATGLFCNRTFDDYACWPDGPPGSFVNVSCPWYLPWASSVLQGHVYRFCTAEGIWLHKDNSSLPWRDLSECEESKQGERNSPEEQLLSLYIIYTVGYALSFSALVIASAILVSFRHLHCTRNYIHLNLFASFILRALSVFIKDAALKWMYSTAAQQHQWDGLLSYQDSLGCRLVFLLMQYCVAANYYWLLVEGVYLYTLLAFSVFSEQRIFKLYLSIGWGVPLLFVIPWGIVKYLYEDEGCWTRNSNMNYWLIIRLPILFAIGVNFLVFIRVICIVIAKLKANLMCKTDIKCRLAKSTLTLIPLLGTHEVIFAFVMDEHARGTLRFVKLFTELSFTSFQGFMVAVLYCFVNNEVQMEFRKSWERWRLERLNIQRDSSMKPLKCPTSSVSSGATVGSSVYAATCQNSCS
# GLP-1R-/- mice = experiment: Intracerebroventricular peptide injection and food intake in GLP-1R-/- mice; assay type: in vivo, mouse; conditions: icv 50 ug; dark phase; 0-1 hour and 2-4 hour time points
# Experimental: FIG. 1: h[Gly^2]-GLP-2 (also designated “440” in the Figure) inhibits dark phase food intake in mice. […] Following recovery, food intake was measured at 1, 2, and 4 hours (Hr) after injection. Values are expressed as mean±S.E.M., n=6 per group for (a) and n=8-20 for (b). (c) Groups of wildtype mice were administered either vehicle (PBS), h[Gly^2]-GLP-2 (50 ug dissolved in PBS), h[Gly^2]-GLP-2 and exendin (9-39) (50 ug of each peptide dissolved in PBS) or exendin (9-39) alone (50 ug dissolved in PBS) via icv injection. (f) Groups of wildtype mice were administered (icv) either vehicle (PBS), h[Gly^2]-GLP-2 alone (50 ug dissolved in PBS), or h[Gly^2]-GLP-2 (50 ug dissolved in PBS) and exendin (9-39) (0.05, 0.5 or 5 ug dissolved in PBS). (e) Groups of wildtype and GLP-1R−/− mice were injected icv with either vehicle (PBS) or h[Gly^2]-GLP-2 (50 ug dissolved in PBS) just prior to the start of dark phase and food intake was measured at 1, 2, and 4 hours. Data are expressed as mean±S.E.M., n=5-8 for all groups. […]
# For icv injections adult male CD1 mice randomized into multiple experimental groups were deeply anesthetized by inhalation of methoxyflurane (Metophane; Janssen, Toronto Ontario) (43). […] Mice were then weighed, given a premeasured quantity of rodent chow and food intake was quantified at 1, 2, 4 and 22 hours. […]
compound,measurement,setting,value
exendin-4 [reference compound],dark phase food intake,adult male CD1 mice,significantly inhibited
same,food intake in fasted mice,adult male CD1 mice; icv,inhibited food intake
same,inhibitory effect on dark phase food intake compared with h[Gly2]-GLP-2,"adult male CD1 mice; icv, dark phase",significantly more potent
same,cAMP accumulation (agonist effect),rat GLP-2 receptor,no cAMP accumulation was detected
"glucagon-like peptide 2 (HADGSFSDEMNTILDNLAARDFINWLIQTKITD; also: acetate salt; UniProt P01275 146-178, looked up) [GLP-2, wild type glucagon-like peptide 2; literature results in rats (icv) and in humans as acetate salt]",therapeutic response in short bowel patients,[1],significant therapeutic response
same,food intake in rats after icv infusion,rats; icv,inhibited food intake
exendin (9-39) [reference compound],amount sufficient for significant potentiation of anorectic effect of h[Gly2]-GLP-2,"adult male CD1 mice; icv with h[Gly2]-GLP-2 50 ug, dark phase, 1-2 hour time point",0.05 µg
same,effect on GLP-1-stimulated cAMP accumulation (antagonism),rat GLP-1 receptor,decreased GLP-1-stimulated cAMP accumulation in a concentration-dependent manner
same,effect on the anorectic effects of GLP-2 in rats,rats,completely inhibited
same,effect on h[Gly2]-GLP-2-stimulated cAMP formation (antagonism),rat GLP-2 receptor; exendin (9-39) 50-1000 nM,no effect
Rat GLP-1 (7-36)NH2 [reference compound],cAMP accumulation (agonist effect),rat GLP-2 receptor,no cAMP accumulation was detected
CC[C@H](C)[C@H](NC(=O)[C@H](Cc1ccccc1)NC(=O)[C@H](CC(=O)O)NC(=O)[C@H](CCCNC(=N)N)NC(=O)[C@H](C)NC(=O)[C@H](C)NC(=O)[C@H](CC(C)C)NC(=O)[C@H](CC(N)=O)NC(=O)[C@H](CC(=O)O)NC(=O)[C@H](CC(C)C)NC(=O)[C@@H](NC(=O)[C@@H](NC(=O)[C@H](CC(N)=O)NC(=O)[C@H](CCSC)NC(=O)[C@H](CCC(=O)O)NC(=O)[C@H](CC(=O)O)NC(=O)[C@H](CO)NC(=O)[C@H](Cc1ccccc1)NC(=O)[C@H](CO)NC(=O)CNC(=O)[C@H](CC(=O)O)NC(=O)CNC(=O)[C@@H](N)Cc1c[nH]cn1)[C@@H](C)O)[C@@H](C)CC)C(=O)N[C@@H](CC(N)=O)C(=O)N[C@@H](Cc1c[nH]c2ccccc12)C(=O)N[C@@H](CC(C)C)C(=O)N[C@H](C(=O)N[C@@H](CCC(N)=O)C(=O)N[C@H](C(=O)N[C@@H](CCCCN)C(=O)N[C@H](C(=O)N[C@H](C(=O)N[C@@H](CC(=O)O)C(=O)O)[C@@H](C)O)[C@@H](C)CC)[C@@H](C)O)[C@@H](C)CC [h[Gly^2]-GLP-2],inhibition of food intake in GLP-1R-/- mice compared with +/+ control mice,GLP-1R-/- mice,significantly greater sensitivity
same,dark phase food intake,adult male CD1 mice,significantly inhibited
same,food intake in fasted mice,adult male CD1 mice; icv,not
same,"food intake in the first hour after injection, absence of exendin (9-39)","adult male CD1 mice; icv, dark phase, 50 ug",did not inhibit food intake
same,duration of inhibitory effect on food intake,"adult male CD1 mice; icv, data not shown",transient and not detectable after more than 4 hours
same,inhibition of food intake with co-administered exendin (9-39),"adult male CD1 mice; icv, wildtype mice, 50 ug of each peptide, multiple time intervals including first hour",significantly more pronounced
same,cAMP accumulation (agonist effect),rat GLP-1 receptor,no effect on cAMP accumulation
same,cAMP accumulation (agonist effect),rat GLP-2 receptor,increased cAMP accumulation in a dose-dependent manner
same,EC50,rat GLP-2 receptor; 0 nM Exendin (9-39) pre-treatment,0.044 nM
same,EC50,rat GLP-2 receptor; in the presence of 50 nM Exendin (9-39),0.059 nM
same,EC50,rat GLP-2 receptor; in the presence of 500 nM Exendin (9-39),0.076 nM
same,EC50,rat GLP-2 receptor; in the presence of 1000 nM Exendin (9-39),0.081 nM
